From ChEMBL document CHEMBL1151109, “Interference Competition Among Natural Fungal Competitors: an Antifungal Metabolite from the Coprophilous Fungus Preussia fleischhakii” (J Nat Prod, 1988)
In brackets after ≈: the same amount, converted by molar mass.

Tests used:
Sordaria fimicola = assay: Antifungal activity against Sordaria fimicola NRRL 6460 assessed as hyphal morphological changes; assay type: functional, organism-based
Ascobolus = assay: Antifungal activity against sAscobolus furfuraceus NRRL 6459 assessed as hyphal morphological changes; assay type: functional, organism-based
[1] = Toxicity in brine shrimp; assay type: organism-based; details: artemia, in vivo

COc1cc(C)c(Oc2cc(C)cc(O)c2)c(O)c1 [CYPERIN]
IC50 (Sordaria fimicola): 50 µg/mL (≈ 192 µM)
MIC (Sordaria fimicola): 75 µg/mL (≈ 288 µM)
IC50 (Ascobolus): 100 µg/mL (≈ 384 µM)
MIC (Ascobolus): 250 µg/mL (≈ 960 µM)
LC50 [1]: 125 µg/mL (≈ 480 µM)
